Biological target: T1, human PDE4B1 (Homo sapiens, UniProt Q07343)
T1 construct: host or cells: Sf9 cells
Assay: cAMP HTRF assay to determine the activity of hPDE4B1
Assay type: biochemical
Conditions: inhibition of PDE4B at a test concentration of 1 μM; for Inhibition in %: 1 µM
Summary of the method: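 […], using HTRF quantitation of residual cAMP after 1 mM IBMX stop and 60 min detection. Enzyme was Sf9-expressed human PDE4B1 incubated 30 min at room temperature with 40 nM final cAMP at pH 7.8.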

T1 sequence (Q07343 whole entry): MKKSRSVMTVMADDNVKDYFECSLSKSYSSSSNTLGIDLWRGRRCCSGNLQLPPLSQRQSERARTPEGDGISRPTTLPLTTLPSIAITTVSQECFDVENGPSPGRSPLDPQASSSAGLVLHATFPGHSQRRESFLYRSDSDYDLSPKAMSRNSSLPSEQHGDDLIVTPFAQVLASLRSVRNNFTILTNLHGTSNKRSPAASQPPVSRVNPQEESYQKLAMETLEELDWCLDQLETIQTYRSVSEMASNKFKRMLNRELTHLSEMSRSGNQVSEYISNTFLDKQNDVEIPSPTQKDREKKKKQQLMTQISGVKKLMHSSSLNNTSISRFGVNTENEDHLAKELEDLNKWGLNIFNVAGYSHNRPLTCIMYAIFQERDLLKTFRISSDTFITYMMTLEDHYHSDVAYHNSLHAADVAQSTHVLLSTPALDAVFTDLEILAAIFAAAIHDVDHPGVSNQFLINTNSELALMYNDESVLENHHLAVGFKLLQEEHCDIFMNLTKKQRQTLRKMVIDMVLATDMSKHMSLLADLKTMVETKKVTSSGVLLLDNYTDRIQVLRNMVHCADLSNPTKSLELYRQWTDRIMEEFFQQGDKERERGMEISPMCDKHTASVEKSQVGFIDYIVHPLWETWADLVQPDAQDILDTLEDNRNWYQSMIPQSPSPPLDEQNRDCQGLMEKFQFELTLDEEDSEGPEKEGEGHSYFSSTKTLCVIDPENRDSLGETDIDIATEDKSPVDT

SMILES	inhibition at 1 µM [%]	Inhibition in % [%]
C[S+]([O-])c1cn(-c2ncc(-c3ccccc3F)cn2)c2cc(C(=O)N3CC4CC3CN4)ccc12 (centres unmarked) [Example 175, 2,5-Diazabicyclo[2.2.1]heptan-2-yl(1-(5-(2-fluorophenyl)pyrimidin-2-yl)-3-(methylsulfinyl)-1H-indol-6-yl)methanone]	114	–
CC(O)c1cn(-c2ncc(-c3ccccc3F)cn2)c2cc(C(=O)N3CCOCC3)ccc12 (single isomer, unassigned) [Example 252, (1-(5-(2-Fluorophenyl)pyrimidin-2-yl)-3-(1-hydroxyethyl)-1H-indol-6-yl)(morpholino)methanone]	–	97
COc1cccc(-c2cnc(-n3cc([S+](C)[O-])c4ccc(C(=O)N5CCNC(=O)C5)cc43)nc2)c1 (single isomer, unassigned) [Example 218, 4-(1-(5-(3-Methoxyphenyl)pyrimidin-2-yl)-3-(methylsulfinyl)-1H-indole-6-carbonyl)piperazin-2-one]	–	98
Cc1cccc(-c2cnc(-n3cc(S(C)(=O)=O)c4ccc(C(=O)N5CCOCC5)cc43)nc2)c1 [Example 156, (3-(Methylsulfonyl)-1-(5-(m-tolyl)pyrimidin-2-yl)-1H-indol-6-yl)(morpholino) methanone]	58	–
C[S+]([O-])c1cn(-c2ncc(-c3ccccc3)cn2)c2cc(C(=O)N3C[C@H]4C[C@@H]3CO4)ccc12 (stereo partly drawn) [Example 234, (1R,4R)-2-Oxa-5-azabicyclo[2.2.1]heptan-5-yl(3-(methylsulfinyl)-1-(5-phenylpyrimidin-2-yl)-1H-indol-6-yl)methanone]	91	–
CN(CC(N)=O)C(=O)c1ccc2c([S+](C)[O-])cn(-c3ncc(-c4ccccc4F)cn3)c2c1 (centres unmarked) [Example 174, N-(2-Amino-2-oxoethyl)-1-(5-(2-fluorophenyl)pyrimidin-2-yl)-N-methyl-3-(methylsulfinyl)-1H-indole-6-carboxamide]	105	–
CC1CCCCN1C(=O)c1ccc2c([S+](C)[O-])cn(-c3ncc(-c4ccccc4F)cn3)c2c1 (centres unmarked) [Example 361, (1-(5-(2-Fluorophenyl)pyrimidin-2-yl)-3-(methylsulfinyl)-1H-indol-6-yl)(2-methylpiperidin-1-yl)methanone]	40	–
CN(C(=O)c1ccc2c([S+](C)[O-])cn(-c3ncc(-c4ccccc4F)cn3)c2c1)C1CCOC1 (centres unmarked) [Example 54, 1-(5-(2-Fluorophenyl)pyrimidin-2-yl)-N-methyl-3-(methylsulfinyl)-N-(tetrahydrofuran-3-yl)-1H-indole-6-carboxamide]	46	–
CC(C)N(C(=O)c1ccc2c([S+](C)[O-])cn(-c3ncc(-c4ccccc4F)cn3)c2c1)C(C)C (centres unmarked) [Example 366, 1-(5-(2-Fluorophenyl)pyrimidin-2-yl)-N,N-diisopropyl-3-(methylsulfinyl)-1H-indole-6-carboxamide]	30	–
CN1CCN(C(=O)c2ccc3c([S+](C)[O-])cn(-c4ncc(-c5ccccc5F)cn4)c3c2)CC1=O (centres unmarked) [Example 76, 4-(1-(5-(2-Fluorophenyl)pyrimidin-2-yl)-3-(methylsulfinyl)-1H-indole-6-carbonyl)-1-methylpiperazin-2-one]	58	–
COC1CCN(C(=O)c2ccc3c([S+](C)[O-])cn(-c4ncc(-c5ccccc5F)cn4)c3c2)CC1 (centres unmarked) [Example 72, (1-(5-(2-Fluorophenyl)pyrimidin-2-yl)-3-(methylsulfinyl)-1H-indol-6-yl)(4-methoxypiperidin-1-yl)methanone]	–	33
C[S+]([O-])c1cn(-c2ncc(-c3ccccc3F)cn2)c2cc(C(=O)N3CCC(CO)CC3)ccc12 (centres unmarked) [Example 380, (1-(5-(2-Fluorophenyl)pyrimidin-2-yl)-3-(methylsulfinyl)-1H-indol-6-yl)(4-(hydroxymethyl)piperidin-1-yl)methanone]	9	–
C[S+]([O-])c1cn(-c2ncc(-c3ccccc3F)cn2)c2cc(C(=O)N3CCSCC3)ccc12 (centres unmarked) [Example 368, (1-(5-(2-Fluorophenyl)pyrimidin-2-yl)-3-(methylsulfinyl)-1H-indol-6-yl)(thiomorpholino)methanone]	103	–
CCN(C)C(=O)c1ccc2c([S+](C)[O-])cn(-c3ncc(-c4ccccc4F)cn3)c2c1 (centres unmarked) [Example 356, N-Ethyl-1-(5-(2-fluorophenyl)pyrimidin-2-yl)-N-methyl-3-(methylsulfinyl)-1H-indole-6-carboxamide]	96	–
C[S+]([O-])c1cn(-c2ncc(-c3ccccc3F)cn2)c2cc(C(=O)N3CCC[C@@H](O)C3)ccc12 (stereo partly drawn) [Example 80, (1-(5-(2-Fluorophenyl)pyrimidin-2-yl)-3-(methylsulfinyl)-1H-indol-6-yl)((R)-3-hydroxypiperidin-1-yl)methanone]	96	–
CN(C)CCN(C)C(=O)c1ccc2c([S+](C)[O-])cn(-c3ncc(-c4ccccc4F)cn3)c2c1 (centres unmarked) [Example 367, N-(2-(Dimethylamino)ethyl)-1-(5-(2-fluorophenyl)pyrimidin-2-yl)-N-methyl-3-(methylsulfinyl)-1H-indole-6-carboxamide]	40	–

Results, then the compound that gave them:

inhibition at 1 µM [%]	Inhibition in % [%]	SMILES
78	–	C[S+]([O-])c1cn(-c2ncc(-c3ccccc3F)cn2)c2cc(C(=O)N3CCC(O)CC3)ccc12 (centres unmarked) [Example 73, (1-(5-(2-Fluorophenyl)pyrimidin-2-yl)-3-(methylsulfinyl)-1H-indol-6-yl)(4-hydroxypiperidin-1-yl)methanone]
60	–	C[S+]([O-])c1cn(-c2ncc(-c3cccc(C#N)n3)cn2)c2cc(C(=O)N3CCOCC3)ccc12 (centres unmarked) [Example 183, 6-(2-(3-(Methylsulfinyl)-6-(morpholine-4-carbonyl)-1H-indol-1-yl)pyrimidin-5-yl)picolinonitrile]
86	–	C[S+]([O-])c1cn(-c2ncc(-c3ccc(C(N)=O)cc3)cn2)c2cc(C(=O)N3CCOCC3)ccc12 (centres unmarked) [Example 42, 4-(2-(3-(Methylsulfinyl)-6-(morpholine-4-carbonyl)-1H-indol-1-yl)pyrimidin-5-yl)benzamide]
83	–	C[S+]([O-])c1cn(-c2ncc(-c3cc(C(N)=O)ccc3F)cn2)c2cc(C(=O)N3CCOCC3)ccc12 (centres unmarked) [Example 43, 4-Fluoro-3-(2-(3-(methylsulfinyl)-6-(morpholine-4-carbonyl)-1H-indol-1-yl)pyrimidin-5-yl)benzamide]
104	–	C[S+]([O-])c1cn(-c2ncc(-c3ccccc3F)cn2)c2cc(C(=O)N3CCOCC3)ccc12 (centres unmarked) [Example 1, (1-(5-(2-fluorophenyl)pyrimidin-2-yl)-3-(methylsulfinyl)-1H-indol-6-yl)(morpholino)methanone]
102	–	Cc1ccc(-c2cnc(-n3cc([S+](C)[O-])c4ccc(C(=O)N5CCOCC5)cc43)nc2)cc1 (centres unmarked) [Example 46, (3-(Methylsulfinyl)-1-(5-(p-tolyl)pyrimidin-2-yl)-1H-indol-6-yl)(morpholino)methanone]
105	–	COc1ccc(-c2cnc(-n3cc([S+](C)[O-])c4ccc(C(=O)N5CCOCC5)cc43)nc2)c(F)c1 (centres unmarked) [Example 39, (1-(5-(2-Fluoro-4-methoxyphenyl)pyrimidin-2-yl)-3-(methylsulfinyl)-1H-indol-6-yl)(morpholino)methanone]
